Values quoted from earlier work, collected in patent publication US20220362237A1, “PS[…] TREATMENT OF PAIN” (Mind Medicine, Inc., priority 2021, published 2022).

Tests used:
[1] = tested on: serotonin 5-HT1 receptors
D2 receptors = D2 receptors (Homo sapiens, UniProt P14416)
5-HT transporter (SERT) = 5-HT transporter (SERT) (Homo sapiens, UniProt P31645)
5HT2A receptors = settings: tumor necrosis factor-alpha-induced inflammation
[2] = 20-microgram dose
[3] = grave and terminally ill patients, acute treatment (one or two doses); pain returned after several days
5-HT2A receptor = 5-HT2A receptor (Homo sapiens, UniProt P28223)
5-HT2A receptor, sequence (P28223 whole entry): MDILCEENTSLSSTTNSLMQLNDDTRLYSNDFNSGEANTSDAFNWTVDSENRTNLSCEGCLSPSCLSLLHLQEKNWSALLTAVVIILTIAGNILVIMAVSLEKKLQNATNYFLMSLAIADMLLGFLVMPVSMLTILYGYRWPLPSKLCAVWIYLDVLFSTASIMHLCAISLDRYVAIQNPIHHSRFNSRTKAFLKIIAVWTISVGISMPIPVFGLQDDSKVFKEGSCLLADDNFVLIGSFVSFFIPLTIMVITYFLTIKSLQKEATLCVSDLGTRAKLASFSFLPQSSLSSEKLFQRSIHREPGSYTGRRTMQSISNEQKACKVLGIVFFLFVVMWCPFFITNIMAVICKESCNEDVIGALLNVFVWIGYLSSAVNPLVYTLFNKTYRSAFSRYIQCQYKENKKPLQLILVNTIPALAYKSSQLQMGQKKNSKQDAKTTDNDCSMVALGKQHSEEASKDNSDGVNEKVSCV

5-HT transporter (SERT), sequence (P31645 whole entry, species assumed): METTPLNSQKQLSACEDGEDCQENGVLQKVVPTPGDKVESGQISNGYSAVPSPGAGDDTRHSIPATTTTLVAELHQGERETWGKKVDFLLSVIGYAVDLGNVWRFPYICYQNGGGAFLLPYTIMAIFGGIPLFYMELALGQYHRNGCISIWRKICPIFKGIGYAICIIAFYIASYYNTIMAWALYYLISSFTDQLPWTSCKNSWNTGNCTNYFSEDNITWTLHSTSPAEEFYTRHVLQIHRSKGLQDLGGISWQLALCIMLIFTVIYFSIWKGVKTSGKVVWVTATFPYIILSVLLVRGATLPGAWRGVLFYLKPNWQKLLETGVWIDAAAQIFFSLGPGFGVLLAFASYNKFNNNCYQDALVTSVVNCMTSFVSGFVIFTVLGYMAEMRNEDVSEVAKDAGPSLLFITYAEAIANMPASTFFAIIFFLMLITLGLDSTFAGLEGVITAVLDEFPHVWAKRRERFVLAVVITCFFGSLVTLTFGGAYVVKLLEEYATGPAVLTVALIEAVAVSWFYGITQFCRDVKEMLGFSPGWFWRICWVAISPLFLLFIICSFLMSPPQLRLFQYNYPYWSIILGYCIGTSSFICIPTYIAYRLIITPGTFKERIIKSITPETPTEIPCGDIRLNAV
D2 receptors, sequence (P14416 whole entry): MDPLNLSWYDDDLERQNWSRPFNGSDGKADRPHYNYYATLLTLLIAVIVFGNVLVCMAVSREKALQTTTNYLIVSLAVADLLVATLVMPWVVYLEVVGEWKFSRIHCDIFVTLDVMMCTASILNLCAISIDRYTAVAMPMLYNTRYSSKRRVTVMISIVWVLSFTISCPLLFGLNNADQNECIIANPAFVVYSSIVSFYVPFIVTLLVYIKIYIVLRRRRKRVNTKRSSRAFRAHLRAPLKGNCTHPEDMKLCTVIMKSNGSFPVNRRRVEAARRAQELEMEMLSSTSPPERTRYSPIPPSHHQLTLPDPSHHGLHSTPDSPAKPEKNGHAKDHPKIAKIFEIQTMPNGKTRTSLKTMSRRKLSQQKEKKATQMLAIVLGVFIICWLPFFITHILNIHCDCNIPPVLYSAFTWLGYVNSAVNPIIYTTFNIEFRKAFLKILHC

COc1cc(CCN)cc(OC)c1OC [mescaline]
agonist potency at serotonin 5-HT1 receptors [1]: low potency | affinity for D2 receptors (D2 receptors): no affinity

CN(C)CCc1c[nH]c2cccc(O)c12 [psilocin]
agonist potency at serotonin 5-HT1 receptors [1]: potent agonists | interaction with / inhibition of the 5-HT transporter (SERT) (5-HT transporter (SERT)): inhibits

COc1cc(CC(C)N)c(OC)cc1I (stereo not shown) [R-DOI, 2,5-dimethoxy-4-iodoamphetamine]
anti-inflammatory effect (5HT2A receptors): potent anti-inflammatory effect

CCN(CC)C(=O)[C@@H]1C=C2c3cccc4[nH]cc(c34)C[C@H]2N(C)C1 [LSD, lysergic acid diethylamide]
subjective levels of experienced pain and unpleasantness [2]: decreased | time that participants could tolerate cold water exposure [2]: significantly increased | agonist potency at serotonin 5-HT1 receptors [1]: potent agonists | stimulation of 5-HT2B/C receptors (5-HT2B/C): stimulates | pain relief compared with the narcotics meperidine and dihydromorphinone [3]: greater and longer lasting pain relief | interaction with / inhibition of the 5-HT transporter (SERT) (5-HT transporter (SERT)): does not interact | stimulation of the 5-HT2A receptor (5-HT2A receptor): potently stimulates | stimulation of D1-3 receptors (D1-3 receptors): stimulates
